Where two headings read alike, the source gives them in different places. One block for each compound: values may come before it.
What was measured:
GluR1 = target: T1, GluR1 (Rattus norvegicus, UniProt P19490); assay: Electrophysiological recording in Xenopus oocytes injected with GluR1 in vitro RNA; assay type: cell-based
T1 construct: expressed in transfected cells; host or cells: Xenopus oocytes injected with in vitro transcribed pGluR1 sense RNA
Experimental: It depends upon the fact that when foreign mRNA is injected into Xenopus oocytes, the mRNA is translated into functional protein.
Either a λZAP cDNA preparation, or a plasmid containing the cDNA to be tested, are cut downstream from the cDNA insert with a restriction enzyme. The post-restriction digest is digested with Proteinase K and then extracted with two phenol: chloroform (1:1) extractions. The resulting DNA fragments are then ethanol precipitated. The precipitated fragments are mixed with either T3 RNA polymerase (to make sense strand), or T7 RNA polymerase (to make anti-sense strand), plus rATP, rCTP, rGTP, rUTP, and RNase inhibitor. Simultaneously, the RNA transcripts are capped with a sodium diguanosine triphosphate [G(5')ppp(5')G] cap. The water used for the above procedures is treated with diethylpyrocarbonate to inactivate RNases.
The in vitro synthesized mRNA transcripts are injected into Xenopus oocytes. 50 nl of an RNA solution, 0.2-0.6 mg/ml, is injected into the stage V oocytes. The injected oocytes are incubated at 16° C. in Barth's medium for 2-7 days before they are analyzed for the presence of functional receptors.
Voltage recordings are made by penetrating the oocyte with a micro-electrode filled with 3M KCl and connected to the bridge circuit of an appropriate voltage clamp unit, e.g., the Dagan 8500 voltage clamp unit. Voltage recordings are preferably obtained with two electrodes, a voltage electrode filled with 3M KCl and a current electrode filled with 0.25 M CsCl, 0.25 M CsF and 50 mM EGTA (ethylene glycol tetraacetic acid).
Oocytes employed herein are obtained from ovarian tissue from anesthetized adult female Xenopus. The ovarian tissue is treated with collagenase, 2 mg/ml, for two hours and then the ovarian epithelium and follicular cells are dissected away.
The plasmid pGluR1 was subsequently rescued from bacteriophage λZAPII-GluR1.
3 days prior to the recording. The oocytes were voltageclamped at -70 mV,
applied by rapid superfusion, with 5 minute intervals between drugs. Peak
currents were recorded; each number represents the average of 3 recording
from 3 different oocytes, ± SEM.
(§1) The data in FIG. 3B represent the responses of oocytes to the indicated agonists measured 3 days after injection with GluR1 (2 ng) or GluR3 (2 ng) RNA or adult rat brain hippocampus poly(A)^+ RNA (~50 ng). All values are normalized to the response obtained with […] and are presented as the mean±S.E.M. with n≥3 for all measurements.

homomeric GluR6 receptor = target: T2, homomeric GluR6 receptor (Rattus norvegicus, UniProt P42260, I567V/Q621R/Y571C); assay: Current recording in Xenopus oocytes injected with GluR6 RNA (homomeric GluR6 receptor); assay type: cell-based; settings: for current measured at -70 mV: 10 μM kainate
T2 construct: engineer a cDNA clone encoding the entire open reading frame of the GluR6 protein; expressed in transfected cells; host or cells: Xenopus oocytes injected with in vitro transcribed GluR6 RNA
T2 sequence (P42260 with tags, fused parts or gaps I567V/Y571C/Q621R): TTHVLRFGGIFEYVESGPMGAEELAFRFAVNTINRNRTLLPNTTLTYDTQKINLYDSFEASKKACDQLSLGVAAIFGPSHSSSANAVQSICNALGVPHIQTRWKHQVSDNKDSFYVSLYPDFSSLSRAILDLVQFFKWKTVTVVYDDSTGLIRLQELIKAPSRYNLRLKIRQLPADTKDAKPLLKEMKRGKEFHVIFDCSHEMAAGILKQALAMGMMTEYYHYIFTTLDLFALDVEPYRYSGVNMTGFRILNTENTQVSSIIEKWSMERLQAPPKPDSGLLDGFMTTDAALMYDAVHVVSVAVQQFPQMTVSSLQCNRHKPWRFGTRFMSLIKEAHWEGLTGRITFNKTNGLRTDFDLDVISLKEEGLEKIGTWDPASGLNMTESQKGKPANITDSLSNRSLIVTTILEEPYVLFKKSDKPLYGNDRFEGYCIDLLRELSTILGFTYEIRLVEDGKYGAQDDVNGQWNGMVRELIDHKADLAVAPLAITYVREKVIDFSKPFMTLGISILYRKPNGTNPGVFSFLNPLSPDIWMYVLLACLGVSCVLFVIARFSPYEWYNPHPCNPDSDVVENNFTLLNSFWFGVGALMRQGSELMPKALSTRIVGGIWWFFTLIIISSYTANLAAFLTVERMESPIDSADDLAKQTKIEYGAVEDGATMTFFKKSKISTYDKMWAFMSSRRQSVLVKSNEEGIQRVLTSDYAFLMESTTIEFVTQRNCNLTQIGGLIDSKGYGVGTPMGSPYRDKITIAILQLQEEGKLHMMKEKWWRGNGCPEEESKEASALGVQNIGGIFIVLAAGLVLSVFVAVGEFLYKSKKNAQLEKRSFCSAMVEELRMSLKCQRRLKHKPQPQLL

GluR3 = assay type: cell-based, rat
Experimental: Thus, oocytes were injected with in vitro synthesized RNA transcripts derived from individual cDNA clones.
as §1

GluR5-2 = GluR5-2 (Rattus norvegicus, UniProt P22756); assay type: cell-based
Chain of GluR5-2 (P22756 31-949): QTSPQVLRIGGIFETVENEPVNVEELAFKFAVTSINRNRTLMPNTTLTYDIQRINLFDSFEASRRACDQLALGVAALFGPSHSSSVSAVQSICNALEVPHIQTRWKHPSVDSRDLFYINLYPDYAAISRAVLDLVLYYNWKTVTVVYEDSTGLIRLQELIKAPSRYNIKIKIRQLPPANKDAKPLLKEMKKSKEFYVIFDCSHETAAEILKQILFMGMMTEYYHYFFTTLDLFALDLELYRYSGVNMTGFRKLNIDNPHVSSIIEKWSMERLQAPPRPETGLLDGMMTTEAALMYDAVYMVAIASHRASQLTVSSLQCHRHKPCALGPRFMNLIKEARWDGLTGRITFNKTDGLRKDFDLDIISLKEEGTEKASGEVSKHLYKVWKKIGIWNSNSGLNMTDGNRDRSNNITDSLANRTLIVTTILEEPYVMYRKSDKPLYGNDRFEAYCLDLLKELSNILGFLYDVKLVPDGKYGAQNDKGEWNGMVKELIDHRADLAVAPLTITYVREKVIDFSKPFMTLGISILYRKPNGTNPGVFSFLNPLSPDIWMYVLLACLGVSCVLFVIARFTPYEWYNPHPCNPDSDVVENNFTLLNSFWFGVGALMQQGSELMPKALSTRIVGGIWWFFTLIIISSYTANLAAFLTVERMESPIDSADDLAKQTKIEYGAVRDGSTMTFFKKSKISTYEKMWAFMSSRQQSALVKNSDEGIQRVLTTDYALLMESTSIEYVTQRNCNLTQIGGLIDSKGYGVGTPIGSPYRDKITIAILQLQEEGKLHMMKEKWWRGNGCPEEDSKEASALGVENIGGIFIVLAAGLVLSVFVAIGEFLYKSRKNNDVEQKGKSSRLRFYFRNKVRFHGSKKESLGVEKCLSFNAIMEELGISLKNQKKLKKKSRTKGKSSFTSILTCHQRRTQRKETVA
Source text: (§2) In vitro synthesized GluR5-1 and GluR5-2 cRNAs were individually expressed in Xenopus oocytes.

[1] = test system: oocytes injected with poly(A)+ RNA isolated from rat forebrain; assay type: cell-based; settings: 2-10 days after injection
GluR5-1 = assay type: cell-based, rat
Source text: as §2

[2] = test system: oocytes injected with pool of in vitro transcripts from rat forebrain cDNA library; assay: Voltage recordings from oocytes injected with pooled in vitro transcripts of the λZAPII RTB1 cDNA library; assay type: cell-based; settings: 10 days after injection
Experimental: A directional cDNA library (λZAPII RTB1; complexity: 8×10^5 elements), consisting of 18 independent sublibraries of 44,000 clones each, was constructed from this poly(A)^+ RNA using the bacteriophage expression vector λZAPII. A pool of in vitro transcripts, comprised of transcripts made separately from all 18 amplified sublibraries, was injected into oocytes. […] Subsequently, pools of 44,000 clones (=the single sublibraries), 4,000, 400 and 40 clones were tested.

[3] = oocytes held at -100 mV, without Con A, AMPA 100 μM
[4] = QUIS 10 μM, AMPA 50 μM, GLU 100 μM, NMDA 30 μM plus 10 μM glycine, APB 50 μM, -70 mV, 3 days after 2 ng RNA

T1 sequence (P19490 19-907): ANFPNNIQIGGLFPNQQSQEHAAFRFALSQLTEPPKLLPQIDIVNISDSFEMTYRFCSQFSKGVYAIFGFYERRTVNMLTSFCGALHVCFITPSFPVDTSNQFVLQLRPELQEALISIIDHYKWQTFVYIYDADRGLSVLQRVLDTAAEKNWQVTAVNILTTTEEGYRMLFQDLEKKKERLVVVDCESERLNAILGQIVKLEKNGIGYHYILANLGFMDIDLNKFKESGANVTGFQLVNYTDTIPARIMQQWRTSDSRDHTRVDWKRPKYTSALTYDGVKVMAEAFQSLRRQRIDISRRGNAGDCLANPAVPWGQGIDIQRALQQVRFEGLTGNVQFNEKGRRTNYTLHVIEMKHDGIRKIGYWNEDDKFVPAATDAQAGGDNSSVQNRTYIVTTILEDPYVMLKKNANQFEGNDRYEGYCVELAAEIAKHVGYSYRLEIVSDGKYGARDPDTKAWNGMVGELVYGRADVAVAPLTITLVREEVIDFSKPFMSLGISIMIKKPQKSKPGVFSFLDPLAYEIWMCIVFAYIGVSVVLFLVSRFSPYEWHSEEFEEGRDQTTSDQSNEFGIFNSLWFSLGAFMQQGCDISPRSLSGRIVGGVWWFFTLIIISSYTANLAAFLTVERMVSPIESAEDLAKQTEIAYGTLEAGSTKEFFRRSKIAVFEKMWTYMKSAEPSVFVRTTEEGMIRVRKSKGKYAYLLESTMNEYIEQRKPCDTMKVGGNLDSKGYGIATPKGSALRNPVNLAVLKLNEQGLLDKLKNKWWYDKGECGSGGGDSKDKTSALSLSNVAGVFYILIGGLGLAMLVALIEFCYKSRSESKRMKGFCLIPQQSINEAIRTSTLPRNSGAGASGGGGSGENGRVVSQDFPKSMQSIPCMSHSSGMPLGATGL

Compound: CN1CCCC1c1cccnc1 (stereo not shown) [nicotine]
- response evoked by unrelated neurotransmitter receptor agonists (GluR1): failed to evoke responses

Compound: NCC(=O)O [glycine]
- potentiation of the KA response (GluR1): did not potentiate
- response evoked by unrelated neurotransmitter receptor agonists (GluR1): failed to evoke responses

Compound: Cc1onc(O)c1CC(N)C(=O)O (stereo not drawn) [AMPA, α-amino-3-hydroxy-5-methyl-isoxazole-4-propionic acid]
- response of Con A treated oocytes (in words) (homomeric GluR6 receptor): did not respond
- effect of coapplication on kainate-evoked (1 μM) responses (homomeric GluR6 receptor; AMPA 100 μM, Con A treated oocytes): no effect
- current evoked by agonist (in words) (homomeric GluR6 receptor; [3]): did not evoke any detectable current

- response evoked by unrelated neurotransmitter receptor agonists (GluR1; concentrations as high as 1 mM): failed to evoke responses
Compound: NCCc1c[nH]c2ccc(O)cc12 [serotonin]

Compound: concanavalin A [Con A]
- effect on desensitization (homomeric GluR6 receptor; 10 μM Con A for 5 minutes): efficiently decreases desensitization

Compound: NC(CCP(=O)(O)O)C(=O)O (stereo not shown) [APB, 2-amino-4-phosphonobutyric acid]
- response of oocytes to agonist (in words) (GluR3; [4]): No detectable responses
- membrane depolarization elicited by agonist (in words) (GluR5-2; KA 100 MM, AMPA 50 μM, quisqualate 10 μM, APB 100 μM, NMDA 100 μM with 10 μM glycine): did not elicit membrane depolarizations
- response to selective agonists (in words) [1]: gave no response
- membrane depolarization elicited by agonist (in words) (GluR5-1; KA, AMPA 50 μM, quisqualate 10 μM, APB 100 μM, NMDA 100 μM with 10 μM glycine): did not elicit membrane depolarizations
- response of oocytes to agonist (in words) (GluR1; [4]): No detectable responses

Compound: NCCCC(=O)O [γ-aminobutyric acid]
- response evoked by unrelated neurotransmitter receptor agonists (GluR1; concentrations as high as 1 mM): failed to evoke responses

Compound: O=C(O)[C@H]1CCCN[C@H]1C(=O)O (relative stereo) [PDA, 2,3cis-piperidine dicarboxylic acid]
- Compound Alone (%) (GluR1): 2.5 ± 0.7%

Compound: CN[C@H](CC(=O)O)C(=O)O [NMDA, N-methyl-D-aspartic acid]
- response of oocytes to agonist (in words) (GluR3): No detectable responses
- membrane depolarization elicited by agonist (in words) (GluR5-2): did not elicit membrane depolarizations
- response to selective agonists (in words) [1]: elicited smooth responses with fast onsets
- response of Con A treated oocytes (in words) (homomeric GluR6 receptor): did not respond
- membrane depolarization elicited by agonist (in words) (GluR5-1): did not elicit membrane depolarizations
- response evoked by glutamate receptor agonists (GluR1): no responses
- response of oocytes to agonist (in words) (GluR1): No detectable responses
- response to agonist (in words) [2]: No responses

Compound: C=C(C)[C@H]1CN[C@H](C(=O)O)[C@H]1CC(=O)O [kainate, kainic acid]
- current measured at -70 mV (homomeric GluR6 receptor; Con A treated, modified Ringer solution (NaCl substituted by sodium methanesulfonate)): 330 nA
- current measured at -70 mV (homomeric GluR6 receptor; Ringer solution, after Con A treatment): 2.3 μa
- current measured at -70 mV (homomeric GluR6 receptor; Ringer solution, before Con A treatment): 30 nA
- time for full recovery from desensitization (homomeric GluR6 receptor; after 100 μM kainate for 30 seconds): approximately 15 minutes
- response of Con A treated oocytes (in words) (homomeric GluR6 receptor; aspartate 100 μM, NMDA 100 μM with 3 μM glycine, AMPA 10-1000 μM): responded
- current evoked by agonist (in words) (homomeric GluR6 receptor; [3]): evoked inward currents that desensitized
- 100% current response (GluR1; 30 μM kainate, -70 mV, depending on the oocyte): 40-200 nA

Compound: N#Cc1cc2[nH]c(=O)c(=O)[nH]c2cc1[N+](=O)[O-] [CNQX, 6-nitro-7-cyano-quinoxaline-2,3-dione]
- block of agonist-evoked responses (in words) (homomeric GluR6 receptor): blocked both quisqualate and kainate-evoked responses

Compound: N[C@H](CCC(=O)NCC(=O)O)C(=O)O [γ-DGG, D-glutamylglycine]
- Compound Alone (%) (GluR1): -0.1 ± 0.5%

Compound: O=C(O)c1cc(=O)c2ccccc2[nH]1 [Kynurenic acid]
- Compound Alone (%) (GluR1): 3.4 ± 0.2%

- Compound Alone (%) (GluR1; % of the response evoked by 30 μM kainate immediately before drug application, compounds at 1 mM (kainate 30 μM), -70 mV, peak currents, 3 oocytes, ± SEM): 3.1 ± 1.4%
Compound: NC(CCCP(=O)(O)O)C(=O)O (stereo not shown) [APV, 2amino-5-phospho-novaleric acid]

Compound: N[C@@H](Cn1oc(=O)[nH]c1=O)C(=O)O [quisqualate, quisqualic acid]
- membrane depolarization elicited by agonist (in words) (GluR5-2): did not elicit membrane depolarizations
- current evoked by agonist (in words) (homomeric GluR6 receptor): activated only small inward currents
- effect on kainate-evoked current (in words) (homomeric GluR6 receptor; without Con A): attenuated a subsequent kainate evoked current

Compound: O=C(O)C1CN(CCCP(=O)(O)O)CCN1 (stereo not shown) [CPP, 3 (2carboxypiperazin-4-yl)propyl-1-phosphate]
- Compound Alone (%) (GluR1): 9.1 ± 0.7%

Compound: CCOC(=O)CC[C@H](N)C(=O)OCC [GDEE, glutamate diethylester]
- Compound Alone (%) (GluR1): 24.8 ± 5.7%
- agonist properties (in words) (GluR1; each at 1 mM): weak agonist properties

From patent US5945509A, “Glutamate receptor compositions and method” (The Salk Institute for Biological Studies, priority 1995, dated 1999)
